# Results from article PMC12472494, “Anticonvulsant Potential of 1-Aryl-6,7-dimethoxy-1,2,3,4-tetrahydroisoquinolines: Insights from Strychnine and Nicotine Models in In Vivo and In Silico Studies” (Pharmaceuticals, 2025).
# Key:
# [1] = test system: strychnine-induced seizures; assay: Strychnine-induced seizure model; format: in vivo, mice; details: for increase of the survival rate of the animals: reference drugs, versus control (100% died); for survival rate of strychnine-poisoned animals: dose not given
# Text: (§1) The anticonvulsant effects of the examined substances were studied in male white mice weighing 18–22 g, divided into the following groups: control (including the strychnine and nicotine groups), carbamazepine group, Convulex group, and experimental groups (one for each tested substance). Simple randomization (“heads or tails” coin toss) was used to assign animals to groups. Each group contained 10 animals. Healthy animals were included in the experiments after a 14-day quarantine period. No animals were excluded from the study. Convulsant agents were administered subcutaneously at doses of 10.0 mg/kg for nicotine (Sigma–Aldrich, Saint Louis, MO, USA) and 1.5 mg/kg for strychnine (Sigma–Aldrich, Saint Louis, MO, USA), 60 min after the oral administration of the test substances at doses ranging from 0.1 to 10 mg/kg. The onset time, duration of tremors and seizures, and survival rate of the animals were recorded. Carbamazepine (Darnitsa, Kiev, Ukraine) at doses of 5.0–10.0 mg/kg and Convulex (valproate) (Gerot Pharmazeutika GmbH, Vienna, Austria) at doses of 75.0–100.0 mg/kg (based on the therapeutic anticonvulsant dose) were used as reference drugs.
# (§2) Data were presented as mean ± SD for different groups. Statistical analysis was performed using OriginPro 9.0 (MicroCal Software, Northampton, MA, USA), with p < 0.05 considered statistically significant.
# [2] = test system: tremorogenic and convulsive actions of nicotine; assay: Nicotine-induced tremor and seizure model; format: in vivo, mice; details: for survival rate: reference drugs; for responders at 1 mg/kg: po; for survival rate of the animals increased to: at low doses (0.1–5 mg/kg); for activity against tremorogenic and convulsive actions of nicotine versus reference drugs (in words): doses of 0.1–5 mg/kg
# Text: as §1, §2
# [3] = design: method as in PMID 36677539; details: per os; cited from earlier work
# [4] = dose 5.0 mg/kg, strychnine 1.5 mg/kg s.c.
# [5] = dose 10.0 mg/kg, strychnine 1.5 mg/kg s.c.
# [6] = doses of 5–10 mg/kg, versus control
# [7] = Mus musculus, sc, read-out: Survival Rate
# [8] = dose 5.0 mg/kg, nicotine 10 mg/kg s.c.
# [9] = dose 10.0 mg/kg, nicotine 10 mg/kg s.c.
# [10] = Mus musculus, oral dose 1.0 mg/kg 60 min before strychnine 1.5 mg/kg s.c., N = 10, read-out: Survival Rate
# [11] = oral dose 1.0 mg/kg 60 min before strychnine 1.5 mg/kg s.c., mean ± SD, N = 10
# [12] = Mus musculus, read-out: Survival Rate
# [13] = oral dose 1.0 mg/kg 60 min before nicotine 10 mg/kg s.c., mean ± SD, N = 10
# [14] = dose 75.0 mg/kg, strychnine 1.5 mg/kg s.c.
# [15] = dose 100.0 mg/kg, strychnine 1.5 mg/kg s.c.
# [16] = doses of 75–100 mg/kg, versus control
# [17] = dose 75.0 mg/kg, nicotine 10 mg/kg s.c.
# [18] = dose 100.0 mg/kg, nicotine 10 mg/kg s.c.
Compound,"responders at 1 mg/kg [1, 10]","Duration of Tremor and Seizures [1, 11]","Latency to Tremor and Seizure Onset [1, 11]","responders at 1 mg/kg [2, 12]","Duration of Seizures [2, 13]","Latency to Seizure Onset [2, 13]",LD50 [3],also measured
"NC(=O)N1c2ccccc2C=Cc2ccccc21 [Carbamazepine, reference compound]",,,,,,,,"responders at 5 mg/kg ([1]; Mus musculus, sc, dose 5.0 mg/kg, strychnine 1.5 mg/kg s.c., read-out: Survival Rate): 40%; responders at 10 mg/kg ([1]; Mus musculus, sc, dose 10.0 mg/kg, strychnine 1.5 mg/kg s.c., read-out: Survival Rate): 50%; Duration of Tremor and Seizures [1, 4]: 0.43 ± 0.5 min; Latency to Tremor and Seizure Onset [1, 4]: 14.6 ± 1.4 min; Duration of Tremor and Seizures [1, 5]: 0.38 ± 0.8 min; Latency to Tremor and Seizure Onset [1, 5]: 12.6 ± 1.7 min; increase of latency time for seizure onset [1, 6]: 29–49%; reduction of the duration of seizures [1, 6]: 21–37%; increase of the survival rate of the animals [1]: 40–50%; responders at 5 mg/kg [2, 7]: 60%; responders at 10 mg/kg [2, 7]: 80%; Duration of Seizures [2, 8]: 15.2 ± 0.9 min; Latency to Seizure Onset [2, 8]: 1.57 ± 0.07 min; Duration of Seizures [2, 9]: 4.7 ± 0.6 min; Latency to Seizure Onset [2, 9]: 1.5 ± 0.02 min; survival rate [2]: 60–80%"
"COc1cc2c(cc1OC)C(c1ccccc1)NCC2 (centres unmarked) [Compound 2, 1-Phenyl-6,7-dimethoxy-1,2,3,4-tetrahydroisoquinoline]",60%,0.43 ± 0.9 min,14.1 ± 1.5 min,70%,3.2 ± 0.6 min,3.2 ± 0.07 min,273.2 (249.7 ± 296.7) mg/kg,
"COc1cc2c(cc1OC)C(c1ccccc1O)NCC2 (centres unmarked) [Compound 3, 1-(2′-Hydroxyphenyl)-6,7-dimethoxy-1,2,3,4-tetrahydroisoquinoline]",60%,0.29 ± 0.6 min,14.5 ± 1.7 min,90%,9.0 ± 0.4 min,2.6 ± 0.08 min,365.3 (326.1 ± 394.5) mg/kg,survival rate of the animals increased to [2]: 90–100%; activity against tremorogenic and convulsive actions of nicotine versus reference drugs (in words) [2]: comparable activity to the reference drugs
"COc1cc2c(cc1OC)C(c1ccc(O)cc1)NCC2 (centres unmarked) [Compound 4, 1-(4′-Hydroxyphenyl)-6,7-dimethoxy-1,2,3,4-tetrahydroisoquinoline]",70%,0.57 ± 0.7 min,14.2 ± 1.8 min,60%,10.5 ± 0.8 min,1.8 ± 0.05 min,924.2 (893.9 ± 953.9) mg/kg,
"COc1ccc(C2NCCc3cc(OC)c(OC)cc32)cc1 (centres unmarked) [Compound 5, 1-(4′-Methoxyphenyl)-6,7-dimethoxy-1,2,3,4-tetrahydroisoquinoline]",60%,0.54 ± 0.7 min,16.5 ± 1.8 min,80%,10.3 ± 0.6 min,2.1 ± 0.09 min,1040.3 (986.0 ± 1079.8) mg/kg,
"COc1cc2c(cc1OC)C(c1ccccc1OC)NCC2 (centres unmarked) [Compound 6, 1-(2′-Methoxyphenyl)-6,7-dimethoxy-1,2,3,4-tetrahydroisoquinoline]",30%,0.50 ± 0.4 min,15.7 ± 1.7 min,100%,10.5 ± 0.5 min,2.4 ± 0.03 min,286.7 (256.9 ± 318.7) mg/kg,survival rate of strychnine-poisoned animals [1]: no more than 40%; survival rate of the animals increased to [2]: 90–100%; activity against tremorogenic and convulsive actions of nicotine versus reference drugs (in words) [2]: comparable activity to the reference drugs; survival rate in nicotine-poisoned animals ([2]; from a dose of 0.1 mg/kg): 90%
"COc1cc2c(cc1OC)C(c1ccccc1[N+](=O)[O-])NCC2 (centres unmarked) [Compound 7, 1-(2′-Nitrophenyl)-6,7-dimethoxy-1,2,3,4-tetrahydroisoquinoline]",40%,0.32 ± 0.7 min,14.2 ± 1.7 min,70%,7.6 ± 0.8 min,2.3 ± 0.07 min,948.9 (916.8 ± 975.8) mg/kg,
"COc1cc2c(cc1OC)C(c1cccc([N+](=O)[O-])c1)NCC2 (centres unmarked) [Compound 8, 1-(3′-Nitrophenyl)-6,7-dimethoxy-1,2,3,4-tetrahydroisoquinoline]",40%,0.56 ± 0.4 min,15.9 ± 1.7 min,90%,15.5 ± 0.3 min,2.3 ± 0.08 min,531.4 (501.3 ± 554.1) mg/kg,survival rate of the animals increased to [2]: 90–100%; activity against tremorogenic and convulsive actions of nicotine versus reference drugs (in words) [2]: comparable activity to the reference drugs
"COc1cc2c(cc1OC)C(c1ccc([N+](=O)[O-])cc1)NCC2 (centres unmarked) [Compound 9, 1-(4′-Nitrophenyl)-6,7-dimethoxy-1,2,3,4-tetrahydroisoquinoline]",40%,0.51 ± 0.5 min,13.5 ± 1.9 min,90%,16.7 ± 0.4 min,2.5 ± 0.03 min,1898.8 (703.5 ± 2273.4) mg/kg,
"COc1cc2c(cc1OC)C(c1ccccc1Cl)NCC2 (centres unmarked) [Compound 10, 1-(2′-Chlorophenyl)-6,7-dimethoxy-1,2,3,4-tetrahydroisoquinoline]",30%,0.60 ± 0.4 min,17.2 ± 1.7 min,70%,9.2 ± 0.9 min,2.2 ± 0.03 min,264.2 (224.8 ± 293.9) mg/kg,
"COc1cc2c(cc1OC)C(c1cccc(Cl)c1)NCC2 (centres unmarked) [Compound 11, 1-(3′-Chlorophenyl)-6,7-dimethoxy-1,2,3,4-tetrahydroisoquinoline]",70%,0.46 ± 0.5 min,15.5 ± 1.2 min,70%,8.3 ± 0.3 min,2.2 ± 0.07 min,232.4 (211.8 ± 251.1) mg/kg,
"COc1cc2c(cc1OC)C(c1ccc(Cl)cc1)NCC2 (centres unmarked) [Compound 12, 1-(4′-Chlorophenyl)-6,7-dimethoxy-1,2,3,4-tetrahydroisoquinoline]",20%,0.23 ± 0.6 min,18.5 ± 1.8 min,70%,7.0 ± 0.4 min,2.1 ± 0.09 min,730.4 (598.2 ± 883.7) mg/kg,
"COc1cc2c(cc1OC)C(c1ccccc1Br)NCC2 (centres unmarked) [Compound 13, 1-(2′-Bromophenyl)-6,7-dimethoxy-1,2,3,4-tetrahydroisoquinoline]",40%,0.31 ± 0.7 min,10.5 ± 1.3 min,50%,5.0 ± 0.7 min,2.2 ± 0.03 min,315.8 (281.2 ± 345.2) mg/kg,survival rate of strychnine-poisoned animals [1]: no more than 40%
"CCCC(CCC)C(=O)O [Valproate (Convulex), Valproate, reference compound]",,,,,,,,"responders at 75 mg/kg [1, 7]: 40%; responders at 100 mg/kg [1, 7]: 20%; Duration of Tremor and Seizures [1, 14]: 0.34 ± 0.6 min; Latency to Tremor and Seizure Onset [1, 14]: 15.4 ± 1.5 min; Duration of Tremor and Seizures [1, 15]: 0.32 ± 0.4 min; Latency to Tremor and Seizure Onset [1, 15]: 14.3 ± 1.3 min; increase of latency time [1, 16]: 46–57%; reduction of the duration of seizures [1, 16]: 53%; increase of the survival rate of the animals [1]: 20–40%; responders at 75 mg/kg ([2]; Mus musculus, sc, dose 75.0 mg/kg, nicotine 10 mg/kg s.c., read-out: Survival Rate): 90%; responders at 100 mg/kg ([2]; Mus musculus, sc, dose 100.0 mg/kg, nicotine 10 mg/kg s.c., read-out: Survival Rate): 90%; Duration of Seizures [2, 17]: 6.2 ± 0.4 min; Latency to Seizure Onset [2, 17]: 1.2 ± 0.04 min; Duration of Seizures [2, 18]: 10.8 ± 0.8 min; Latency to Seizure Onset [2, 18]: 1.5 ± 0.06 min; survival rate [2]: 90%"
